Reference: ChEMBL document CHEMBL1139519, “Are L-adenosine and its derivatives substrates for S-adenosyl-L-homocysteine hydrolase?” (J Med Chem, 2005)
The source made the active and inactive calls. No cut-off for these calls is given here.

Experiments:
Adenosylhomocysteinase [1] = target: T1, Adenosylhomocysteinase (Homo sapiens, UniProt P23526); experiment: Inhibitory potency against recombinant human placental S-Adenosyl-L-homocysteine Hydrolase
Target sequence in this assay (P23526 whole entry): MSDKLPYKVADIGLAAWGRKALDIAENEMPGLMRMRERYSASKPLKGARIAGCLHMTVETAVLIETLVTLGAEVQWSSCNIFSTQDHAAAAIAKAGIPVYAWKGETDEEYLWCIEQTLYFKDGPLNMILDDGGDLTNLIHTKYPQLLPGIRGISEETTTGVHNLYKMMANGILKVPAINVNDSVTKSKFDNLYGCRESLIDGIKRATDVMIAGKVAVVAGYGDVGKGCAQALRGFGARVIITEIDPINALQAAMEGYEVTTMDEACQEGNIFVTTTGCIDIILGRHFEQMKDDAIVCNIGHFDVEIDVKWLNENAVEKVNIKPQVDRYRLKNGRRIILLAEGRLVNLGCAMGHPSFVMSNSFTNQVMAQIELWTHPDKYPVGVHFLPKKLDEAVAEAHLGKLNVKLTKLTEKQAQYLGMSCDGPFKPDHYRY

Adenosylhomocysteinase [2] = target: T1, Adenosylhomocysteinase
Target sequence in this assay (P23526 2-432 limits assumed): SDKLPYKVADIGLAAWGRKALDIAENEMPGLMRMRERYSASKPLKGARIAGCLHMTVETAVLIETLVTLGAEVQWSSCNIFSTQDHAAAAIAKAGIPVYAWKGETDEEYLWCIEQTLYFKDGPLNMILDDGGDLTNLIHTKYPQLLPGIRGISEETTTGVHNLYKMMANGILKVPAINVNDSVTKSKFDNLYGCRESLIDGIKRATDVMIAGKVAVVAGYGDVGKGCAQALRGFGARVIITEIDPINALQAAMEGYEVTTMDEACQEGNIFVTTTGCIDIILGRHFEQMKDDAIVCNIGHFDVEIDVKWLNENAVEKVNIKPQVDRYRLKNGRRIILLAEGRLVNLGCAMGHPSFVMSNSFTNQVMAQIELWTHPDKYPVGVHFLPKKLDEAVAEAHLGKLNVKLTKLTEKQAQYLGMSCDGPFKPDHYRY
Description: Inhibitory potency against recombinant human placental S-Adenosyl-L-homocysteine Hydrolase at 200 uM

Adenosylhomocysteinase [3] = target: T1, Adenosylhomocysteinase; remark: listed apart in the source
Target sequence in this assay (P23526 2-432 limits assumed): as above
Description: Inactivation constant against recombinant human placental S-Adenosyl-L-homocysteine Hydrolase

SMILES | Ki (Adenosylhomocysteinase [1]) [nM] | Inhibitory potency (Adenosylhomocysteinase [2]) | Kinact (Adenosylhomocysteinase [3]) [min⁻¹]
Nc1ncnc2c1ncn2[C@H]1OC(/C=N/O)C(O)[C@@H]1O (single isomer, unassigned) | 670 | inactive | 0.16
Nc1ncnc2c1ncn2C1O[C@H](CO)[C@@H](O)[C@H]1O (single isomer, unassigned) |  | inactive | 
